Experimental data as given in the Kinase Knowledgebase extract (Sharma et al. 2016).
pIC50: −log10 of the molar value.

Each compound was assayed against PIK3CA (human) (UniProt P42336) (assay: Assessment of PIK3CA Kinase Activity Using Homogenous Solution Phase Assay).
PIK3CA (human), sequence (P42336 whole entry, looked up): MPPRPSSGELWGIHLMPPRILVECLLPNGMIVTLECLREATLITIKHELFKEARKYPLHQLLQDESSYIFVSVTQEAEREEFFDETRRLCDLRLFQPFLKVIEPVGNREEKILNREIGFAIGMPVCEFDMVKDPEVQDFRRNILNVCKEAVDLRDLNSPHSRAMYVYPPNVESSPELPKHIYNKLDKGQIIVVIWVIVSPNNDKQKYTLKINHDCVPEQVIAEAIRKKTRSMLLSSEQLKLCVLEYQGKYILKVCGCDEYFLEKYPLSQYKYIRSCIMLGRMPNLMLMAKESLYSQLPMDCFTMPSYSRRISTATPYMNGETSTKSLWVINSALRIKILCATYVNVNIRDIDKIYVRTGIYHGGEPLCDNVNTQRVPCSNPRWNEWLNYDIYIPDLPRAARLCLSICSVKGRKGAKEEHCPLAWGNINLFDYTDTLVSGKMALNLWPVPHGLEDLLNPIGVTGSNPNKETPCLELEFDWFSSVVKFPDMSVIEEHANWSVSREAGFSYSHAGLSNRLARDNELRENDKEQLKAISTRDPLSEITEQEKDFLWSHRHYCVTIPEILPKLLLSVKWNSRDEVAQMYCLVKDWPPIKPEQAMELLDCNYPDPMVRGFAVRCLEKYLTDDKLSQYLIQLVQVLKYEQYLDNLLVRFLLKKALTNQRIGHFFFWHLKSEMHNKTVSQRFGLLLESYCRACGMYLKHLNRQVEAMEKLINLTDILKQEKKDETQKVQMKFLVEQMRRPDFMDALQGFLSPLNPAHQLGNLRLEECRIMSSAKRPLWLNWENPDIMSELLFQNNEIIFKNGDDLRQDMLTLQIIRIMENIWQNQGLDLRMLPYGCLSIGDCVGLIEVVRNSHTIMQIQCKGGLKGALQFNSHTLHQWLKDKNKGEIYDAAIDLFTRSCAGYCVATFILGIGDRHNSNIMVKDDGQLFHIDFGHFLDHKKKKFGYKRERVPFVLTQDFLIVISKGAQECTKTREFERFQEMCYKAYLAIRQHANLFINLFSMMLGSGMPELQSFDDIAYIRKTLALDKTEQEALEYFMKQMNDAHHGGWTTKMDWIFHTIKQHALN

Row | pIC50 | SMILES
1 | > 4.70 | Cc1ccc(-c2cc(Nc3cccnc3)nc(N3CCOCC3)n2)cc1O
2 | > 4.70 | O=[N+]([O-])c1cc(Nc2cc(-c3cccc(O)c3)nc(N3CCOCC3)n2)ccc1O
3 | > 4.70 | Oc1cccc(-c2cc(Nc3ccc4cn[nH]c4c3)nc(N3CCOCC3)n2)c1
4 | > 4.70 | Oc1cc(-c2cc(Nc3cccnc3)nc(N3CCOCC3)n2)ccc1Cl
5 | > 4.70 | Oc1cccc(-c2cc(Nc3ccc4nn[nH]c4c3)nc(N3CCOCC3)n2)c1
6 | > 4.70 | C[C@@H](Nc1cc(-c2cccc(O)c2)nc(N2CCOCC2)n1)c1ccccc1
7 | > 4.70 | Oc1cccc(-c2cc(Nc3ccc4c(c3)OCCO4)nc(N3CCOCC3)n2)c1
8 | > 4.70 | COc1ccc(Nc2cc(-c3cccc(O)c3)nc(N3CCOCC3)n2)cc1O
9 | > 4.70 | Oc1cccc(-c2cc(N3CCCNCC3)nc(N3CCOCC3)n2)c1
10 | > 4.70 | Oc1cccc(-c2cc(Nc3ccc4c(c3)NCC4)nc(N3CCOCC3)n2)c1
11 | > 4.70 | Oc1cccc(-c2cc(N(Cc3ccccc3)Cc3nccs3)nc(N3CCOCC3)n2)c1
12 | > 4.70 | COc1ccc(Nc2cc(-c3cccc(O)c3)nc(N3CCOCC3)n2)cc1Cl
13 | > 4.70 | Oc1cccc(-c2cc(Nc3cnccn3)nc(N3CCOCC3)n2)c1
14 | > 4.70 | Cc1ccc(O)cc1-c1cc(Nc2cccnc2)nc(N2CCOCC2)n1
15 | > 4.70 | FC(F)(F)c1cccc(-c2cc(Nc3cccnc3)nc(N3CCOCC3)n2)c1
16 | > 4.70 | Oc1cccc(-c2cc(Nc3cccc4cnccc34)nc(N3CCOCC3)n2)c1
17 | > 4.70 | Oc1cccc(-c2cc(Nc3ccc4[nH]ncc4c3)nc(N3CCCNCC3)n2)c1
18 | > 4.70 | Oc1cccc(-c2cc(Nc3ccc(O)c(Cl)c3)nc(N3CCOCC3)n2)c1

Row | pIC50 | SMILES
19 | > 4.70 | COc1ccc(Nc2cc(-c3cccc(O)c3)nc(N3CCOCC3)n2)cc1OC
20 | > 4.70 | COc1ccc(Nc2cc(-c3cccc(O)c3)nc(N3CCOCC3)n2)cc1F
21 | > 4.70 | Oc1cccc(-c2cc(Nc3ccc4ncccc4c3)nc(N3CCOCC3)n2)c1
22 | > 4.70 | Fc1cccc(-c2cc(Nc3cccnc3)nc(N3CCOCC3)n2)c1
23 | > 4.70 | Cc1ccc(Nc2cc(-c3cccc(O)c3)nc(N3CCOCC3)n2)cc1C
24 | > 4.70 | Oc1cccc(-c2cc(Nc3ccc4[nH]ncc4c3)nc(N3CCCCCC3)n2)c1
25 | > 4.70 | O=c1[nH]c2ccc(Nc3cc(-c4cccc(O)c4)nc(N4CCOCC4)n3)cc2[nH]1
26 | > 4.70 | COc1cccc(-c2cc(Nc3cccnc3)nc(N3CCOCC3)n2)c1
27 | > 4.70 | Oc1cccc(-c2cc(Nc3ccccn3)nc(N3CCOCC3)n2)c1
28 | > 4.70 | OCC1CCCN1c1cc(-c2cccc(O)c2)nc(N2CCOCC2)n1 (stereo not given)
29 | > 4.70 | CC(=O)N1CCc2ccc(Nc3cc(-c4cccc(O)c4)nc(N4CCOCC4)n3)cc21
30 | > 4.70 | Oc1cccc(-c2cc(Nc3ccc4c(c3)Cc3ccccc3-4)nc(N3CCOCC3)n2)c1
31 | > 4.70 | Oc1cccc(-c2cc(Nc3ccc4nc[nH]c4c3)nc(N3CCOCC3)n2)c1
32 | > 4.70 | Oc1cccc(-c2cc(Nc3ccc4c(c3)CCC4)nc(N3CCOCC3)n2)c1
33 | > 4.70 | COc1cc(Nc2cc(-c3cccc(O)c3)nc(N3CCOCC3)n2)cc(OC)c1OC
34 | > 4.70 | Nc1cc(-c2cccc(O)c2)nc(N2CCOCC2)n1
35 | > 4.70 | Oc1cccc(-c2cc(Nc3ccc4c(c3)OCO4)nc(N3CCOCC3)n2)c1

These compounds were tested against PIK3CA (human) (UniProt P42336) (assay: Assessment of PIK3CA Kinase Activity Using One Step Solid Phase Assay).

Row | pIC50 | SMILES
36 | > 4.70 | Cc1ccc(-c2cc(Nc3cccnc3)nc(N3CCOCC3)n2)cc1O
37 | > 4.70 | COc1cccc(-c2nc(N3CCOCC3)nc(Nc3cccnc3)c2C(=O)O)c1
38 | > 4.70 | Oc1cc(-c2cc(Nc3cccnc3)nc(N3CCOCC3)n2)ccc1Cl
39 | > 4.70 | Oc1cccc(-c2cc(Nc3ccc4nn[nH]c4c3)nc(N3CCOCC3)n2)c1
40 | > 4.70 | Oc1cccc(-c2cc(Nc3cc(Cl)ccc3O)nc(N3CCOCC3)n2)c1
41 | > 4.70 | C[C@@H](Nc1cc(-c2cccc(O)c2)nc(N2CCOCC2)n1)c1ccccc1
42 | > 4.70 | N[C@@H]1CCCC[C@H]1Nc1cc(-c2cccc(O)c2)nc(N2CCOCC2)n1
43 | > 4.70 | Oc1cccc(-c2cc(NCCc3ccccn3)nc(N3CCOCC3)n2)c1
44 | > 4.70 | Oc1cccc(-c2cc(N3CCCNCC3)nc(N3CCOCC3)n2)c1
45 | > 4.70 | O=C(CN1CCN(c2cc(-c3cccc(O)c3)nc(N3CCOCC3)n2)CC1)N1CCOCC1
46 | > 4.70 | CCCCOc1ccc(Nc2cc(-c3cccc(O)c3)nc(N3CCOCC3)n2)cc1
47 | > 4.70 | Oc1cccc(-c2cc(Nc3ccc(Oc4ccccc4)cc3)nc(N3CCOCC3)n2)c1
48 | > 4.70 | Oc1cccc(-c2cc(N3CCN(c4cccc(Cl)c4)CC3)nc(N3CCOCC3)n2)c1
49 | > 4.70 | Oc1cccc(-c2cc(Nc3cccc(Oc4ccccc4)c3)nc(N3CCOCC3)n2)c1
50 | > 4.70 | Oc1ccc(Nc2cc(-c3cccc(O)c3)nc(N3CCOCC3)n2)cc1
51 | > 4.70 | Oc1cccc(-c2cc(Nc3cc(-c4ccccc4)ccc3O)nc(N3CCOCC3)n2)c1
52 | > 4.70 | CCn1c(C)nc2cc(Nc3cc(-c4cccc(O)c4)nc(N4CCOCC4)n3)ccc21
53 | > 4.70 | Oc1cccc(-c2cc(N3CCN(Cc4ccc5c(c4)OCO5)CC3)nc(N3CCOCC3)n2)c1
54 | > 4.70 | COc1cccc(Nc2cc(-c3cccc(O)c3)nc(N3CCOCC3)n2)c1OC
55 | > 4.70 | Oc1cccc(-c2cc(Nc3ccc4c(c3)OCCCO4)nc(N3CCOCC3)n2)c1
56 | > 4.70 | CCOc1ccc(Nc2cc(-c3cccc(O)c3)nc(N3CCOCC3)n2)cc1
57 | > 4.70 | Oc1cccc(-c2cc(Nc3cccc(OCc4ccccc4)c3)nc(N3CCOCC3)n2)c1
58 | > 4.70 | COc1ccccc1Nc1cc(-c2cccc(O)c2)nc(N2CCOCC2)n1

Row | pIC50 | SMILES
59 | > 4.70 | COc1cc(Nc2ccccc2)ccc1Nc1cc(-c2cccc(O)c2)nc(N2CCOCC2)n1
60 | > 4.70 | Cc1ccc(CN(Cc2cccnc2)c2cc(-c3cccc(O)c3)nc(N3CCOCC3)n2)cc1
61 | > 4.70 | Oc1cccc(-c2cc(NCCCn3ccnc3)nc(N3CCOCC3)n2)c1
62 | > 4.70 | NC1CCCC(Nc2cc(-c3cccc(O)c3)nc(N3CCOCC3)n2)C1 (stereo not given)
63 | > 4.70 | Oc1cccc(-c2cc(N(Cc3ccccc3)Cc3ccccc3)nc(N3CCOCC3)n2)c1
64 | > 4.70 | COc1ccc(Nc2cc(-c3cccc(O)c3)nc(N3CCOCC3)n2)cc1OC1CCCC1
65 | > 4.70 | Oc1cccc(-c2cc(NCCc3cccnc3)nc(N3CCOCC3)n2)c1
66 | > 4.70 | COc1cccc(Nc2cc(-c3cccc(O)c3)nc(N3CCOCC3)n2)c1
67 | > 4.70 | Oc1cccc(-c2cc(Nc3ccccc3O)nc(N3CCOCC3)n2)c1
68 | > 4.70 | COc1ccc(OC)c(Nc2cc(-c3cccc(O)c3)nc(N3CCOCC3)n2)c1
69 | > 4.70 | CN1CCCN(c2cc(-c3cccc(O)c3)nc(N3CCOCC3)n2)CC1
70 | > 4.70 | COc1c(Nc2cc(-c3cccc(O)c3)nc(N3CCOCC3)n2)ccc2c1oc1ccccc12
71 | > 4.70 | Fc1ccccc1-c1cc(Nc2ccc3[nH]ncc3c2)nc(N2CCOCC2)n1
72 | > 4.70 | COc1cccc(C)c1Nc1cc(-c2cccc(O)c2)nc(N2CCOCC2)n1
73 | > 4.70 | CCOc1ccccc1Nc1cc(-c2cccc(O)c2)nc(N2CCOCC2)n1
74 | > 4.70 | CCOc1ccc(OCC)c(Nc2cc(-c3cccc(O)c3)nc(N3CCOCC3)n2)c1
75 | > 4.70 | Cc1ccc(CN(Cc2ccccn2)c2cc(-c3cccc(O)c3)nc(N3CCOCC3)n2)cc1
76 | > 4.70 | Oc1cccc(-c2cc(N3CCN(CCc4ccccc4)CC3)nc(N3CCOCC3)n2)c1
77 | > 4.70 | Oc1cccc(Nc2cc(-c3cccc(O)c3)nc(N3CCOCC3)n2)c1
78 | > 4.70 | COc1ccc(Nc2cc(-c3cccc(O)c3)nc(N3CCOCC3)n2)c(OC)c1
79 | > 4.70 | COc1ccc(Nc2cc(-c3ccccc3)nc(N3CCOCC3)n2)cc1O
80 | > 4.70 | Oc1cccc(-c2cc(N3CCC(O)CC3)nc(N3CCOCC3)n2)c1
